One experiment relates to arteria basilaris. The experiment in a line: Isolated smooth muscle: inhibition of K+ depolarization contraction of blood vessel rings in an organ bath, A. basilaris. Type of experiment: cell-based. The conditions noted are these: rabbit, average diameter 0.5-1.0 mm, read-out: IC50, semi-maximum inhibition of the K+ depolarization contraction of blood vessel rings, A. bas. The text has this: (§1) Isolated smooth muscle from rabbits (blood vessel rings, A. basilaris, A. coronaria, A. saphena) are fixed in an organ bath in such a manner that isometric contractions can be measured. The contraction is initiated by a potassium depolarization in tyrode solution.

The subject of experiment [1] is isolated papillary muscle of the guinea pig. In words: Isolated papillary muscle: isometric contraction under field stimulation. Type of experiment: cell-based. The conditions noted are these: for IC50: read-out: IC50 /100 (IC = inhibition concentration, IC100 corresponds to maximum action) (converted). The text has this: However, it cannot be excluded that the dimethyl sulfoxide used as a solvent has contributed to the observed positive inotropic action.

The subject of a further experiment is arteria saphena. In words: Isolated smooth muscle: inhibition of K+ depolarization contraction of blood vessel rings in an organ bath, A. saphena. Conditions: rabbit, average diameter 0.5-1.0 mm, read-out: IC50, semi-maximum inhibition of the K+ depolarization contraction of blood vessel rings, A. saph. The experiment is classed as cell-based.
From the text: as §1

Another experiment has as its system arteria coronaria. The experiment in a line: Isolated smooth muscle: inhibition of K+ depolarization contraction of blood vessel rings in an organ bath, A. coronaria. The experiment is classed as cell-based. The conditions noted are these: rabbit, average diameter 0.5-1.0 mm, read-out: IC50, semi-maximum inhibition of the K+ depolarization contraction of blood vessel rings, A. cor.
From the text: as §1

In experiment [2] the test system is papillary muscle of the rabbit. Conditions: Hof and Scholtysik, cited from earlier work.
Where [3] appears, read: Cavia porcellus, papillary muscle of guinea pig, 250/min, 10 msec, 10-20 V field stimulation.

Where a name gives a salt, the structure may show the parent alone. Read-outs that look alike come from different tables or passages of the source.

Consider 14 molecules from US4760081A, “1,6-naphthyridine derivatives useful for treating diseases of the blood vessels” (Goedecke Aktiengesellschaft, priority 1984, dated 1988).

`COC(=O)C1=C(C)Nc2ccnc(OC(C)C)c2C1c1ccccc1F` (racemic) [Example 1, Methyl (±)-4-(2-fluorophenyl)-1,4-dihydro-5-isopropoxy-2-methyl-1,6-naphthyridine-3-carboxylate]: the IC50 in the experiment with arteria basilaris (Oryctolagus cuniculus) is 5 nM; in experiment [1] (setting [3]) it was 300000 nM; in the experiment on arteria saphena (Oryctolagus cuniculus) it was 7 nM; with arteria coronaria (Oryctolagus cuniculus), 30 nM.
For `COC(=O)C1=C(C)Nc2ccnc(OC(C)C)c2C1c1ccccc1[N+](=O)[O-]` (racemic) [Example 1b, methyl (±)-1,4-dihydro-5-isopropoxy-2-methyl-4-(2-nitrophenyl)-1,6-naphthyridine-3-carboxylate], the IC50 in the experiment with arteria basilaris (Oryctolagus cuniculus) worked out at 0.66 nM; in the experiment with arteria saphena (Oryctolagus cuniculus), 3.4 nM; in the experiment with arteria coronaria (Oryctolagus cuniculus) it was 0.75 nM.
`COC(=O)C1=C(C)Nc2ccnc(OC(C)C)c2C1c1ccccc1` (racemic) [Example 1c, methyl (±)-1,4-dihydro-5-isopropoxy-2-methyl-4-phenyl-1,6-naphthyridine-3-carboxylate]: the IC50 in the experiment with arteria basilaris (Oryctolagus cuniculus) is 15 nM; in the experiment with arteria saphena (Oryctolagus cuniculus) it was 1000 nM; in the experiment on arteria coronaria (Oryctolagus cuniculus) it was 65 nM. Moreover, the activation at 0.3 µM in experiment [1] (Cavia porcellus, 3×10^-7 mol/liter, read-out: maximum increase of the contractility) was 36%. In experiment [1] (Cavia porcellus, 4×10^-9 mol/liter, read-out: increase of the contractility), the activation at 0.004 µM was determined as 18%.
As for `COC(=O)C1=C(C)Nc2ccnc(OC(C)C)c2C1c1c(F)cccc1Cl` (racemic) [Example 1g, methyl (±)-4-(2-chloro-6-fluorophenyl)-1,4-dihydro-5-isopropoxy-2-methyl-1,6-naphthyridine-3-carboxylate], the results for the IC50 in the experiment with arteria basilaris (Oryctolagus cuniculus) and with arteria coronaria (Oryctolagus cuniculus) were 5.9 nM and 3.2 nM, respectively.
On to `CCCOc1nccc2c1C(c1ccccc1C(F)(F)F)C(C(=O)OC)=C(C)N2` (racemic) [Example 1h, methyl (±)-1,4-dihydro-2-methyl-5-propoxy-4-(2-trifluoromethylphenyl)-1,6-naphthyridine-3-carboxylate], for which the IC50 with arteria basilaris (Oryctolagus cuniculus) stood at 3000 nM; in the experiment with arteria saphena (Oryctolagus cuniculus) it was 1000 nM; with arteria coronaria (Oryctolagus cuniculus) it was 15 nM.
With `CCOC(=O)C1=C(C)Nc2ccnc(OC(C)C)c2C1c1ccccc1C(F)(F)F` (racemic) [Example 1l, ethyl (±)-1,4-dihydro-5-isopropoxy-2-methyl-4-(2-trifluoromethylphenyl)-1,6-naphthyridine-3-carboxylate], the IC50 in the experiment on arteria basilaris (Oryctolagus cuniculus) is 7.4 nM; in experiment [1] (setting [3]) it was 120000 nM; in the experiment with arteria saphena (Oryctolagus cuniculus), 390 nM; in the experiment with arteria coronaria (Oryctolagus cuniculus), 31 nM.
`CCOC(=O)C1=C(C)Nc2ccnc(OC(C)CC)c2C1c1ccccc1C(F)(F)F` (racemic) [Example 1p, ethyl (±)-5-sec-butoxy-1,4-dihydro-2-methyl-4-(2-trifluoromethylphenyl)-1,6-napthyridine-3-carboxylate hydrochloride]: the IC50 with arteria basilaris (Oryctolagus cuniculus) is 16 nM; in experiment [1] (setting [3]), 10000 nM; in the experiment with arteria coronaria (Oryctolagus cuniculus), 53 nM.
For `CCOC(=O)C1=C(C)Nc2ccnc(OCC(C)C)c2C1c1ccccc1C(F)(F)F` (racemic) [Example 1q, ethyl (±)-1,4-dihydro-5-isobutoxy-2-methyl-4-(2-trifluoromethylphenyl)-1,6-naphthyridine-3-carboxylate] the same measures were 35 nM, 10000 nM and 190 nM.
Take `COC(=O)C1=C(C)Nc2ccnc(OC)c2C1c1ccccc1` (racemic) [Example 2, Methyl (±)-1,4-dihydro-5-methoxy-2-methyl-4-phenyl-1,6-naphthyridine-3-carboxylate]: the IC50 amounted to 250 nM in the experiment with arteria basilaris (Oryctolagus cuniculus), 90 nM in the experiment with arteria saphena (Oryctolagus cuniculus) and 1000 nM in the experiment with arteria coronaria (Oryctolagus cuniculus).
`CCOC(=O)C1=C(C)Nc2ccnc(OC)c2C1c1ccccc1Cl` (racemic) [Example 2a, ethyl (±)-4-(2-chlorophenyl)-1,4-dihydro-5-methoxy-2-methyl-1,6-naphthyridine-3-carboxylate]: the IC50 in the experiment with arteria basilaris (Oryctolagus cuniculus) was 6 nM; in the experiment with arteria saphena (Oryctolagus cuniculus), 600 nM; with arteria coronaria (Oryctolagus cuniculus) it was 10 nM.
For `CCOC(=O)C1=C(C)Nc2ccnc(OC)c2C1c1cccc([N+](=O)[O-])c1` (racemic) [Example 2b, ethyl (±)-1,4-dihydro-5-methoxy-2-methyl-4-(3-nitrophenyl)-1,6-naphthyridine-3-carboxylate] the same measures were 1.8 nM, 600 nM and 12 nM.
`COc1ccc([C@@H]2Sc3ccccc3N(CCN(C)C)C(=O)[C@@H]2OC(C)=O)cc1` [diltiazem, reference compound]: the IC50 with arteria basilaris (Oryctolagus cuniculus) is 120 nM; in experiment [1] (setting [3]), 10000 nM; in the experiment on arteria saphena (Oryctolagus cuniculus), 2900 nM; in the experiment on arteria coronaria (Oryctolagus cuniculus) it was 170 nM.
Consider `COC(=O)C1=C(C)NC(C)=C(C(=O)OC)C1c1ccccc1[N+](=O)[O-]` [nifedipine, reference compound], for which the IC50 was 2.7 nM in the experiment with arteria basilaris (Oryctolagus cuniculus); 1000 nM in experiment [2] (read-out: IC50 /100 (IC = inhibition concentration, IC100 corresponds to maximum action)); 59 nM in the experiment with arteria saphena (Oryctolagus cuniculus); 5 nM in the experiment on arteria coronaria (Oryctolagus cuniculus). In experiment [2], the “Δ% = maximum decrease of the contractility” value was -80%.
With “methyl (±)-4-(2-bromoethyl)-1,4-dihydro-5-isopropoxy-2-methyl-1,6-naphthyridine-3-carboxylate [Example 1a]”, the IC50 in the experiment with arteria basilaris was 2.4 nM; in experiment [1] (papillary muscle of guinea pig, 250/min, 10 msec, 10-20 V field stimulation), 300000 nM; in the experiment on arteria saphena it was 8 nM; with arteria coronaria it was 2.7 nM. In experiment [1] (at IC100, papillary muscle of guinea pig, 250/min, 10 msec, 10-20 V field stimulation), the “Δ% = maximum decrease of the contractility” value is reported as -48%.
